Assay results published in patent US20160175318A1, “COMPOSITIONS COMPRISING ANTIBACTERIAL AGENT AND TAZOBACTAM” (WOCKHARDT LIMITED, priority 2013, published 2016).
Where two headings read alike, the source gives them in different places.

Experiments:
Type in all cases: cell-based
[1] = system: E. coli M50; test: MIC by agar dilution (CLSI) against highly resistant ESBL strain
Protocol: (§1) The results on activity of cefepime and other cephalosporin antibacterial agents in combination with tazobactam against highly resistant ESBL strains are given Table 1. In a typical study, overnight grown bacterial cultures were diluted appropriately and inoculated on the agar media containing doubling dilutions of the antibiotic. Observation for growth or no growth was performed after 16-20 h of incubation at 35±2° C. in ambient air. The overall procedure was performed as per Clinical and Laboratory Standards Institute (CLSI) recommendations. This experimental was followed for Examples 2-4 and 6 below (Table 2-4 and 7).

[2] = system: E. cloacae M-20; test: as above
Protocol: as §1

[3] = system: K. pneumoniae M150; test: as above; conditions: Klebsiella pneumoniae
Protocol: as §1

[4] = system: E. coli B-89; test: as above
Protocol: as §1

[5] = system: E. coli 7MP; test: as above
Protocol: as §1

[6] = system: E. coli M50; test: Quantitative drug diffusion assay (disc, zone of inhibition, CLSI); set-up: key to Interpretation of zone as per CLSI recommendations: R: Resistant; I: Intermediate; S: Sensitive (Interpretation as per CLSI recommendations, 2010)
Source text: (§2) Activity of cefepime in combination with tazobactam and various penicillins in combination with respective ESBL inhibitors was also investigated against highly resistant ESBL strains in quantitative drug diffusion assay performed as per CLSI recommendations (Clinical and Laboratory Standards Institute (CLSI), performance Standards for Antimicrobial Susceptibility Testing, 20th Informational Supplement, M 100-S20, Volume 30, No. 1, 2010).
(§3) In a typical study, overnight grown bacterial cultures after appropriate dilution were seed inoculated in the molten, cooled agar media and plates poured. Antibiotics containing 6 mm diameter discs were place on the top of the agar surface. Zone of inhibition based observation was performed after 16-18 h of incubation at 35±2° C. in ambient air. The overall procedure was performed as per CLSI recommendations (Table 5 and 6). These assays are routinely used in determining possibility of treating a particular infection using antibiotic and/or their combinations. For example, in case of treating an infection caused by E. coli (M138) using Augmentin® [commercially available combination: Amoxicillin (500 mg)+Clavulanic acid (125 mg)], the zone inhibition values need to be in the sensitive (S) range.

[7] = system: E. coli M-138; test: as above; set-up: key to Interpretation of zone as per CLSI recommendations: R: Resistant; I: Intermediate; S: Sensitive (Interpretation as per CLSI recommendations, 2010)
Source text: as §2, §3

[8] = system: E. coli B-123; test: as above; set-up: key to Interpretation of zone as per CLSI recommendations: R: Resistant; I: Intermediate; S: Sensitive (Interpretation as per CLSI recommendations, 2010)
Source text: as §2, §3

[9] = system: E. coli B-89; test: as above; set-up: key to Interpretation of zone as per CLSI recommendations: R: Resistant; I: Intermediate; S: Sensitive (Interpretation as per CLSI recommendations, 2010)
Source text: as §2, §3

[10] = system: E. coli S-112; test: as above; set-up: key to Interpretation of zone as per CLSI recommendations: R: Resistant; I: Intermediate; S: Sensitive (Interpretation as per CLSI recommendations, 2010)
Source text: as §2, §3

[11] = system: E. coli 7MP; test: as above; set-up: key to Interpretation of zone as per CLSI recommendations: R: Resistant; I: Intermediate; S: Sensitive (Interpretation as per CLSI recommendations, 2010)
Source text: as §2, §3

[12] = ESBL inhibitor 0 mcg (antibiotic alone)
[13] = Table 5, with Clavulanic acid 10 mcg
[14] = Table 6, with Clavulanic acid 10 mcg

CC1(C)S[C@@H]2[C@H](NC(=O)[C@H](N)c3ccc(O)cc3)C(=O)N2[C@H]1C(=O)O [Amoxicillin]
Nil: Zone of Inhibition [6, 12] | Zone of Inhibition ([6]; with Clavulanic acid 10 mcg) | Zone of Inhibition [7, 12] | Zone of Inhibition ([7]; with Clavulanic acid 10 mcg) | Zone of Inhibition [8, 12] | Zone of Inhibition ([8]; with Clavulanic acid 10 mcg) | Zone of Inhibition [9, 12] | Zone of Inhibition ([9]; with Clavulanic acid 10 mcg) | Zone of Inhibition [10, 12] | Zone of Inhibition ([10]; with Clavulanic acid 10 mcg) | Zone of Inhibition [11, 12] | Zone of Inhibition ([11]; with Clavulanic acid 10 mcg)
>64 µg/mL: MIC ([1]; with Tazobactam 4 mcg) | MIC ([1]; with Tazobactam 8 mcg) | MIC ([2]; E. cloacae M-20, with Tazobactam 4 mcg) | MIC ([2]; E. cloacae M-20, with Tazobactam 8 mcg) | MIC ([4]; E. coli B-89, with Tazobactam 4 mcg) | MIC ([4]; E. coli B-89, with Tazobactam 8 mcg) | MIC ([5]; E. coli 7MP, with Tazobactam 4 mcg) | MIC ([5]; E. coli 7MP, with Tazobactam 8 mcg)
> 128 µg/mL: MIC ([1]; Escherichia coli, M50, 20 h, Tazobactam 0 mcg (antibiotic alone)) | MIC ([2]; Enterobacter cloacae, M20, 20 h) | MIC ([3]; M150) | MIC ([4]; Escherichia coli, B89, 20 h) | MIC ([5]; Escherichia coli, 7MP, 20 h)
> 64 µg/mL: MIC ([3]; M150, K. pneumoniae M150, with Tazobactam 4 mcg, read-out: MIC) | MIC ([3]; M150, K. pneumoniae M150, with Tazobactam 8 mcg, read-out: MIC)
(R): Interpretation of zone as per CLSI recommendations ([6]; Table 5, ESBL inhibitor 0 mcg) | Interpretation of zone as per CLSI recommendations [6, 13] | Interpretation of zone as per CLSI recommendations ([6]; Table 6, ESBL inhibitor 0 mcg) | Interpretation of zone as per CLSI recommendations [6, 14] | Interpretation of zone as per CLSI recommendations ([7]; Table 5, ESBL inhibitor 0 mcg) | Interpretation of zone as per CLSI recommendations [7, 13] | Interpretation of zone as per CLSI recommendations ([7]; Table 6, ESBL inhibitor 0 mcg) | Interpretation of zone as per CLSI recommendations [7, 14] | Interpretation of zone as per CLSI recommendations ([8]; Table 5, ESBL inhibitor 0 mcg) | Interpretation of zone as per CLSI recommendations [8, 13] | Interpretation of zone as per CLSI recommendations ([8]; Table 6, ESBL inhibitor 0 mcg) | Interpretation of zone as per CLSI recommendations [8, 14] | Interpretation of zone as per CLSI recommendations ([9]; Table 5, ESBL inhibitor 0 mcg) | Interpretation of zone as per CLSI recommendations [9, 13] | Interpretation of zone as per CLSI recommendations ([9]; Table 6, ESBL inhibitor 0 mcg) | Interpretation of zone as per CLSI recommendations [9, 14] | Interpretation of zone as per CLSI recommendations ([10]; Table 5, ESBL inhibitor 0 mcg) | Interpretation of zone as per CLSI recommendations [10, 13] | Interpretation of zone as per CLSI recommendations ([10]; Table 6, ESBL inhibitor 0 mcg) | Interpretation of zone as per CLSI recommendations [10, 14] | Interpretation of zone as per CLSI recommendations ([11]; Table 5, ESBL inhibitor 0 mcg) | Interpretation of zone as per CLSI recommendations [11, 13] | Interpretation of zone as per CLSI recommendations ([11]; Table 6, ESBL inhibitor 0 mcg) | Interpretation of zone as per CLSI recommendations [11, 14]
